Test results published in patent US10131652B2, “Pyrimidinyloxy benzene derivatives as herbicides” (E. I. DU PONT DE NEMOURS AND COMPANY, priority 2014, dated 2018).
Like-named read-outs stand apart in the source and are kept apart here.

What was measured:
Type in all cases: in vivo
[1] = system: ducksalad (Heteranthera limosa); experiment: Test C flooded paddy test plant response; conditions: Heteranthera limosa; Flood, 250 g ai/ha; scale of 0 to 100 where 0 is no effect and 100 is complete control; 13 to 15 days; read-out: Ducksalad plant response rating
Method in brief: (§1)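 Greenhouse paddy assay, 13–15 days. Treatment into 3 cm floodwater over 2-leaf plants; visual 0–100 rating against controls.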

[2] = system: barnyardgrass (Echinochloa crus-galli); experiment: Test C flooded paddy test plant response; conditions: Echinochloa crus-galli; Flood, 250 g ai/ha; scale of 0 to 100 where 0 is no effect and 100 is complete control; 13 to 15 days; read-out: Barnyardgrass plant response rating
Method in brief: as §1

rice (Oryza sativa) = experiment: Test C flooded paddy test plant response; conditions: Oryza sativa; Flood, 250 g ai/ha; scale of 0 to 100 where 0 is no effect and 100 is complete control; 13 to 15 days; read-out: Rice plant response rating
Method in brief: as §1

[3] = system: small-flower umbrella sedge (Cyperus difformis); experiment: Test C flooded paddy test plant response; conditions: Cyperus difformis; Flood, 250 g ai/ha; scale of 0 to 100 where 0 is no effect and 100 is complete control; 13 to 15 days; read-out: Sedge, Umbrella plant response rating
Method in brief: as §1

[4] = system: barnyardgrass (Echinochloa crus-galli); experiment: Test D pre-/postemergence plant response; conditions: Echinochloa crus-galli; for pest or weed control at 16 g/ha: 16 g ai/ha; for pest or weed control at 31 g/ha: 31 g ai/ha; for pest or weed control at 62 g/ha: 62 g ai/ha; for pest or weed control at 125 g/ha: 125 g ai/ha
Method in brief: (§2)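 Preemergence: seeds in loam/sand blend treated with test chemicals in non-phytotoxic solvent with surfactant; postemergence: plants at 2–18 cm (1- to 4-leaf stage) in peat-based medium sprayed likewise. Greenhouse 13 to 15 days, then visual rating vs controls, 0 (no effect) to 100 (complete control).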

[5] = system: blackgrass (Alopecurus myosuroides); experiment: Test D pre-/postemergence plant response; conditions: Alopecurus myosuroides; for pest or weed control at 16 g/ha: 16 g ai/ha; for pest or weed control at 31 g/ha: 31 g ai/ha; for pest or weed control at 62 g/ha: 62 g ai/ha; for pest or weed control at 125 g/ha: 125 g ai/ha
Method in brief: as §2

[6] = system: giant foxtail (Setaria faberii); experiment: Test D pre-/postemergence plant response; conditions: Setaria faberi; for pest or weed control at 16 g/ha: 16 g ai/ha; for pest or weed control at 31 g/ha: 31 g ai/ha; for pest or weed control at 62 g/ha: 62 g ai/ha; for pest or weed control at 125 g/ha: 125 g ai/ha
Method in brief: as §2

[7] = system: pigweed (Amaranthus retroflexus); experiment: Test D pre-/postemergence plant response; conditions: Amaranthus retroflexus; for pest or weed control at 31 g/ha: 31 g ai/ha; for pest or weed control at 62 g/ha: 62 g ai/ha; for pest or weed control at 125 g/ha: 125 g ai/ha
Method in brief: as §2

[8] = system: johnsongrass (Sorghum halepense); experiment: Test D pre-/postemergence plant response; conditions: Sorghum halepense; for pest or weed control at 31 g/ha: 31 g ai/ha; for pest or weed control at 62 g/ha: 62 g ai/ha; for pest or weed control at 125 g/ha: 125 g ai/ha
Method in brief: as §2

[9] = system: oilseed rape (Brassica napus); experiment: Test D pre-/postemergence plant response; conditions: Brassica napus; for plant injury at 31 g/ha: 31 g ai/ha; for plant injury at 62 g/ha: 62 g ai/ha; for plant injury at 125 g/ha: 125 g ai/ha
Method in brief: as §2

[10] = system: velvetleaf (Abutilon theophrasti); experiment: Test D pre-/postemergence plant response; conditions: Abutilon theophrasti; for pest or weed control at 31 g/ha: 31 g ai/ha; for pest or weed control at 62 g/ha: 62 g ai/ha; for pest or weed control at 125 g/ha: 125 g ai/ha
Method in brief: as §2

[11] = system: Italian ryegrass (Lolium multiflorum); experiment: Test B pre-/postemergence plant response
Method in brief: (§3)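 Visual injury rating, 0 (no effect) to 100 (complete control), vs untreated controls after ~10 d greenhouse. Pre: directed soil spray after planting in loam/sand. Post: plants 2–10 cm, 1–2 leaf stage. Compound in non-phytotoxic solvent plus surfactant.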

kochia (Kochia scoparia) = experiment: Test B pre-/postemergence plant response
Method in brief: as §3

[12] = system: ragweed (common ragweed, Ambrosia elatior); experiment: Test B pre-/postemergence plant response
Method in brief: as §3

[13] = post-emergence, Postemergence, scale 0 to 100 (0 no effect, 100 complete control), read-out: Barnyardgrass plant response rating
[14] = post-emergence, Postemergence, scale 0 to 100, 0 no effect, 100 complete control, read-out: Plant response rating, Barnyardgrass
[15] = pre-emergence, Preemergence, scale 0 to 100 (0 no effect, 100 complete control), read-out: Plant response rating, Barnyardgrass
[16] = post-emergence, Postemergence, scale 0 to 100 (0 no effect, 100 complete control), read-out: Blackgrass plant response rating
[17] = post-emergence, Postemergence, scale 0 to 100, 0 no effect, 100 complete control, read-out: Plant response rating, Blackgrass
[18] = pre-emergence, Preemergence, scale 0 to 100 (0 no effect, 100 complete control), read-out: Plant response rating, Blackgrass
[19] = post-emergence, Postemergence, scale 0 to 100 (0 no effect, 100 complete control), read-out: Foxtail, Giant plant response rating
[20] = post-emergence, Postemergence, scale 0 to 100, 0 no effect, 100 complete control, read-out: Plant response rating, Foxtail, Giant
[21] = pre-emergence, Preemergence, scale 0 to 100 (0 no effect, 100 complete control), read-out: Plant response rating, Foxtail, Giant
[22] = post-emergence, Postemergence, scale 0 to 100, 0 no effect, 100 complete control, read-out: Plant response rating, Pigweed
[23] = pre-emergence, Preemergence, scale 0 to 100 (0 no effect, 100 complete control), read-out: Plant response rating, Pigweed
[24] = post-emergence, Postemergence, scale 0 to 100, 0 no effect, 100 complete control, read-out: Plant response rating, Johnsongrass
[25] = pre-emergence, Preemergence, scale 0 to 100 (0 no effect, 100 complete control), read-out: Plant response rating, Johnsongrass
[26] = post-emergence, Postemergence, scale 0 to 100, 0 no effect, 100 complete control, read-out: Plant response rating, Oilseed Rape
[27] = pre-emergence, Preemergence, scale 0 to 100 (0 no effect, 100 complete control), read-out: Plant response rating, Oilseed Rape
[28] = post-emergence, Postemergence, scale 0 to 100, 0 no effect, 100 complete control, read-out: Plant response rating, Velvetleaf
[29] = pre-emergence, Preemergence, scale 0 to 100 (0 no effect, 100 complete control), read-out: Plant response rating, Velvetleaf
[30] = 125 g ai/ha, postemergence, 0 to 100 scale, 0 no effect, 100 complete control
[31] = Postemergence, 500 g ai/ha, 0 to 100 scale (0 no effect, 100 complete control)
[32] = Preemergence, 125 g ai/ha, 0 to 100 scale (0 no effect, 100 complete control)
[33] = Preemergence, 500 g ai/ha, 0 to 100 scale where 0 is no effect and 100 is complete control

## Fc1cccc(Oc2ncc(Cl)cn2)c1-c1cc(C(F)(F)F)on1 [Compound 168, 5-chloro-2-[2-[5-(trifluoromethyl)-3-isoxazolyl]-3-fluorophenoxy]pyrimidine]
[1]
  pest or weed control at 250 g/ha: 90%
[2]
  pest or weed control at 250 g/ha: 90%
Rice (Oryza sativa)
  plant injury at 250 g/ha: 40%
[3]
  pest or weed control at 250 g/ha: 90%
[4]; [13]
  pest or weed control at 16 g/ha: 5%
  pest or weed control at 31 g/ha: 5%
[4]; [14]
  pest or weed control at 62 g/ha: 10%
  pest or weed control at 125 g/ha: 75%
[4]; pre-emergence, Preemergence, read-out: Plant response rating (scale 0 to 100), Barnyardgrass
  pest or weed control at 125 g/ha: 100%
[4]; [15]
  pest or weed control at 16 g/ha: 35%
  pest or weed control at 31 g/ha: 75%
  pest or weed control at 62 g/ha: 100%
[5]; [16]
  pest or weed control at 16 g/ha: 10%
  pest or weed control at 31 g/ha: 15%
[5]; [17]
  pest or weed control at 62 g/ha: 15%
  pest or weed control at 125 g/ha: 20%
[5]; pre-emergence, Preemergence, read-out: Plant response rating (scale 0 to 100), Blackgrass
  pest or weed control at 125 g/ha: 90%
[5]; [18]
  pest or weed control at 16 g/ha: 85%
  pest or weed control at 31 g/ha: 90%
  pest or weed control at 62 g/ha: 90%
[6]; [19]
  pest or weed control at 16 g/ha: 35%
  pest or weed control at 31 g/ha: 35%
[6]; [20]
  pest or weed control at 62 g/ha: 40%
  pest or weed control at 125 g/ha: 60%
[6]; pre-emergence, Preemergence, read-out: Plant response rating (scale 0 to 100), Foxtail, Giant
  pest or weed control at 125 g/ha: 100%
[6]; [21]
  pest or weed control at 16 g/ha: 100%
  pest or weed control at 31 g/ha: 100%
  pest or weed control at 62 g/ha: 100%
[7]; post-emergence, Postemergence, scale 0 to 100 (0 no effect, 100 complete control), read-out: Pigweed plant response rating
  pest or weed control at 31 g/ha: 85%
[7]; [22]
  pest or weed control at 62 g/ha: 95%
  pest or weed control at 125 g/ha: 98%
[7]; pre-emergence, Preemergence, read-out: Plant response rating (scale 0 to 100), Pigweed
  pest or weed control at 125 g/ha: 100%
[7]; pre-emergence, Preemergence, 16 g ai/ha, scale 0 to 100 (0 no effect, 100 complete control), read-out: Plant response rating, Pigweed
  pest or weed control at 16 g/ha: 85%
[7]; [23]
  pest or weed control at 31 g/ha: 100%
  pest or weed control at 62 g/ha: 100%
[8]; post-emergence, Postemergence, scale 0 to 100 (0 no effect, 100 complete control), read-out: Johnsongrass plant response rating
  pest or weed control at 31 g/ha: 5%
[8]; [24]
  pest or weed control at 62 g/ha: 5%
  pest or weed control at 125 g/ha: 20%
[8]; pre-emergence, Preemergence, read-out: Plant response rating (scale 0 to 100), Johnsongrass
  pest or weed control at 125 g/ha: 100%
[8]; pre-emergence, Preemergence, 16 g ai/ha, scale 0 to 100 (0 no effect, 100 complete control), read-out: Plant response rating, Johnsongrass
  pest or weed control at 16 g/ha: 35%
[8]; [25]
  pest or weed control at 31 g/ha: 95%
  pest or weed control at 62 g/ha: 85%
[9]; post-emergence, Postemergence, scale 0 to 100 (0 no effect, 100 complete control), read-out: Oilseed Rape plant response rating
  plant injury at 31 g/ha: 100%
[9]; [26]
  plant injury at 62 g/ha: 100%
  plant injury at 125 g/ha: 100%
[9]; pre-emergence, Preemergence, read-out: Plant response rating (scale 0 to 100), Oilseed Rape
  plant injury at 125 g/ha: 100%
[9]; pre-emergence, Preemergence, 16 g ai/ha, scale 0 to 100 (0 no effect, 100 complete control), read-out: Plant response rating, Oilseed Rape
  plant injury at 16 g/ha: 95%
[9]; [27]
  plant injury at 31 g/ha: 100%
  plant injury at 62 g/ha: 100%
[10]; post-emergence, Postemergence, scale 0 to 100 (0 no effect, 100 complete control), read-out: Velvetleaf plant response rating
  pest or weed control at 31 g/ha: 40%
[10]; [28]
  pest or weed control at 62 g/ha: 45%
  pest or weed control at 125 g/ha: 90%
[10]; pre-emergence, Preemergence, read-out: Plant response rating (scale 0 to 100), Velvetleaf
  pest or weed control at 125 g/ha: 100%
[10]; pre-emergence, Preemergence, 16 g ai/ha, scale 0 to 100 (0 no effect, 100 complete control), read-out: Plant response rating, Velvetleaf
  pest or weed control at 16 g/ha: 85%
[10]; [29]
  pest or weed control at 31 g/ha: 100%
  pest or weed control at 62 g/ha: 100%
[11]; [30]
  Plant response rating, Ryegrass, Italian: 90
[11]; [31]
  Plant response rating, Ryegrass, Italian: 90
[11]; [32]
  Ryegrass, Italian plant response rating: 80
[11]; [33]
  Plant response rating, Ryegrass, Italian: 100
Kochia (Kochia scoparia); [30]
  Plant response rating, Kochia: 90
Kochia (Kochia scoparia); [31]
  Plant response rating, Kochia: 90
Kochia (Kochia scoparia); [32]
  Kochia plant response rating: 100
Kochia (Kochia scoparia); [33]
  Plant response rating, Kochia: 100
[12]; [30]
  Plant response rating, Ragweed: 90
[12]; [31]
  Plant response rating, Ragweed: 90
[12]; [32]
  Ragweed plant response rating: 70
[12]; [33]
  Plant response rating, Ragweed: 80
